Test results: patent US9017985B2, “Photosynthetic microorganisms enriched in selenium using selenohydroxy acid compounds, used thereof in nutrition, cosmetics and pharmacy” (Metabolium, priority 2008, dated 2015)

How the values were obtained:
[1] = diet supplementation; cited from earlier work
[2] = test system: Chlorella vulgaris SAG211-11B; test: Selenium enrichment of Chlorella vulgaris microalga cultured with a selenium source, mixotrophic conditions; analysis of selenium components; assay type: cell-based; details: 20 mgSe/l added once in exponential growth phase; 7 days incubation; mean of triplicate
Method: In these tests, the strain used is a strain of Chlorella vulgaris SAG211-11B: an axenic strain originating from the SAG collection of the University of Göttingen (SAG: Sammlung von Algenkulturen der Universität Göttingen [Collection of Alga Cultures of the University of Göttingen]) which was cultured under mixotrophic conditions in the following medium:
(§1) The pH was adjusted to 7.2 and the medium was autoclaved at 121° C. for 15 minutes.
The organic source of selenium, namely 2-hydroxy-4-methylselenobutanoic acid (THD-177, Tetrahedron SAS, France, CAS: 873660-49-2) was administered at a concentration of 20 mg/l on a selenium equivalent basis, i.e. 50 mg/l of 2-hydroxy-4-methylselenobutanoic acid.
The inorganic selenium source ([…], sodium selenite) was administered at a concentration of 20 mg/l on a selenium equivalent basis, i.e. 43.9 mg/l of sodium selenite.
The compound containing selenium was added just one time in the exponential growth phase of the Chlorella vulgaris strain (i.e. 3 days after the inoculation).
(§2) After incubation for 7 days, the medium was filtered through a 0.2 micron Nalgene membrane (Ref a-PES, diameter 90 mm), and the cell retentate was rinsed with physiological saline. The wet cell mass was lyophilized for analysis of the constituents containing selenium (total selenium, selenomethionine and sodium selenite).
(§3) The total selenium was assayed by ICP coupled to detection by mass, after mineralization of the sample. The speciation of the selenium was carried out by high performance liquid chromatography coupled to tandem mass detection, after enzyme digestion of the sample, according to the method described by Lobinsky et al., in Mester, Z. et al. (2006) Annal. Bioanal. Chem. 385: 168-180.
Table 1 below indicates the average values, on a selenium equivalent basis, obtained in triplicate for incubation times of 7 days.

[3] = test system: Arthrospira platensis 3054-E0001; test: Selenium enrichment of Arthrospira platensis microalga cultured with a selenium source, autotrophic conditions; analysis of selenium components; assay type: cell-based; details: 25 mgSe/l added once just after inoculation (T=0); 10 days incubation; mean of triplicate
Method: In these tests, the strain used is a strain of Arthrospira platensis 3054-E0001.
The 3054-50001 strain was cultured under autotrophic conditions in the following medium:
as §1
The organic source of selenium, namely 2-hydroxy-4-methylselenobutanoic acid (THD-177, Tetrahedron SAS, France, CAS: 873660-49-2) was administered at a concentration of 25 mg/l on a selenium equivalent basis, i.e. 62.5 mg/l of 2-hydroxy-4-methylselenobutanoic acid.
The inorganic selenium source ([…], sodium selenite) was administered at a concentration of 25 mg/l on a selenium equivalent basis, i.e. 54.4 mg/l of sodium selenite.
The compound containing selenium was added just one time, just after the inoculation with the Arthrospira platensis strain (i.e. T=0).
as §2, with “10” for “7”, “cell pellet” for “medium”, “membrane,” for “membrane (Ref a-PES, diameter 90 mm),”
as §3
Table 2 below indicates the average values, on a selenium equivalent basis, obtained in triplicate for incubation times of 10 days.
In these tests, the strain used is a strain of Arthrospira platensis 3054-E0001. […]

| Compound | Toxicity compared with an intake in the form of sodium selenite [1] | Se(IV) [2] [mgSe/kg biomass] | SeMethionine [2] [mgSe/kg biomass] | Total Se [2] [mgSe/kg biomass] | Se(IV) [3] [mgSe/kg biomass] | SeMethionine [3] [mgSe/kg biomass] | Total Se [3] [mgSe/kg biomass] |
| --- | --- | --- | --- | --- | --- | --- | --- |
| C[Se]CC[C@H](N)C(=O)O [L(+)-selenomethionine] | much less toxic |  |  |  |  |  |  |
| O=[Se](O)O [NaSe, sodium selenite] |  | 4.1 ± 0.4 | 29 ± 2 | 144 ± 5 | 5.1 ± 0.3 | 13 ± 3 | 177 ± 2 |
